From patent US8680108B2, “Substituted fused aryl and heteroaryl derivatives as PI3K inhibitors” (Incyte Corporation, priority 2009, dated 2014)
Where a name gives a salt, the structure may show the parent alone. Read-outs that look alike come from different tables or passages of the source.

Target: T1, PI3Kδ (p110δ/p85α) (Homo sapiens, UniProt O00329)
T1 construct: purchased Millipore (Bedford, Mass.)
Assay: PI3Kδ scintillation proximity assay
Assay type: biochemical
Source text: Materials: [γ-^33P]ATP (10 mCi/mL) was purchased from Perkin-Elmer (Waltham, Mass.). Lipid kinase substrate, D-myo-Phosphatidylinositol 4,5-bisphosphate (PtdIns(4,5)P2)D (+)-sn-1,2-di-O-octanoylglyceryl, 3-O-phospho linked (PIP2), CAS 204858-53-7, was purchased from Echelon Biosciences (Salt Lake City, Utah). PI3Kδ (p110δ/p85α) was purchased from Millipore (Bedford, Mass.). ATP, MgCl2, DTT, EDTA, MOPS and CHAPS were purchased from Sigma-Aldrich (St. Louis, Mo.). Wheat Germ Agglutinin (WGA) YSi SPA Scintillation Beads was purchased from GE healthcare life sciences (Piscataway, N.J.).
Assay: The kinase reaction was conducted in polystyrene 384-well matrix white plate from Thermo Fisher Scientific in a final volume of 25 μL. Inhibitors were first diluted serially in DMSO and added to the plate wells before the addition of other reaction components. The final concentration of DMSO in the assay was 0.5%. The PI3K assays were carried out at room temperature in 20 mM MOPS, pH 6.7, 10 mM MgCl2, 5 mM DTT and CHAPS 0.03%. Reactions were initiated by the addition of ATP, the final reaction mixture consisted of 20 μM PIP2, 20 μM ATP, 0.2 μCi [γ-^33P] ATP, 4 nM PI3Kδ. Reactions were incubated for 210 minutes and terminated by the addition of 40 μL SPA beads suspended in quench buffer: 150 mM potassium phosphate pH 8.0, 20% glycerol. 25 mM EDTA, 400 μM ATP. The final concentration of SPA beads is 1.0 mg/mL. After the plate sealing, plates were shaken overnight at room temperature and centrifuged at 1800 rpm for 10 minutes, the radioactivity of the product was determined by scintillation counting on Topcount (Perkin-Elmer). IC50 determination was performed by fitting the curve of percent control activity versus the log of the inhibitor concentration using the GraphPad Prism® 3.0 software.

T1 sequence (O00329 whole entry): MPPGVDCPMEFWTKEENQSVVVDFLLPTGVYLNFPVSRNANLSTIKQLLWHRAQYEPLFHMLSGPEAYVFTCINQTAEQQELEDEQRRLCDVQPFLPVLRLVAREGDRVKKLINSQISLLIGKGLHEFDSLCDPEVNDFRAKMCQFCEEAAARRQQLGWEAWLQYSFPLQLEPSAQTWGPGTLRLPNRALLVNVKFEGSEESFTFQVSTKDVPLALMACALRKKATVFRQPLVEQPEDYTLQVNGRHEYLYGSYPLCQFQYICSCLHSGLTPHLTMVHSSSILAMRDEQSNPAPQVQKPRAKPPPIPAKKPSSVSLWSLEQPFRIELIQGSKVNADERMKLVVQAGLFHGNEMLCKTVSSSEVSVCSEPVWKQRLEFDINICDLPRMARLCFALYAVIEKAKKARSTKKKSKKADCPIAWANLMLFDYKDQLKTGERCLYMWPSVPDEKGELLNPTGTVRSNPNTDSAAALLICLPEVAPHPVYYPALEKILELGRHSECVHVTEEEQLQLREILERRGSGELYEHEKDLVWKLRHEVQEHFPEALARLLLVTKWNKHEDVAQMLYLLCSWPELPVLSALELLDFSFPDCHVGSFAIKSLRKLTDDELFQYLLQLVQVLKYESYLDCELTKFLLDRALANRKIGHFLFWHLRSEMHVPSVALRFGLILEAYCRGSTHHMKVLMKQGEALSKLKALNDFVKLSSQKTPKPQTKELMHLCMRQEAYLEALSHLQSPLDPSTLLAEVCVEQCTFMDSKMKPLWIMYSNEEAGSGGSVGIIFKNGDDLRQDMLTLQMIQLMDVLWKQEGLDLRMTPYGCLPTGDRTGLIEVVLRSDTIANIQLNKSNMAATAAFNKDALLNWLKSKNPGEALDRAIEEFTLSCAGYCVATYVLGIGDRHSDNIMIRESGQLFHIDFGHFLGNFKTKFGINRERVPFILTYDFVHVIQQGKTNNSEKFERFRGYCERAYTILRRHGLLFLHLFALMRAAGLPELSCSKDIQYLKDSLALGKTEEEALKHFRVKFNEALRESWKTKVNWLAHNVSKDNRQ
T1 sequence (P27986 whole entry partner): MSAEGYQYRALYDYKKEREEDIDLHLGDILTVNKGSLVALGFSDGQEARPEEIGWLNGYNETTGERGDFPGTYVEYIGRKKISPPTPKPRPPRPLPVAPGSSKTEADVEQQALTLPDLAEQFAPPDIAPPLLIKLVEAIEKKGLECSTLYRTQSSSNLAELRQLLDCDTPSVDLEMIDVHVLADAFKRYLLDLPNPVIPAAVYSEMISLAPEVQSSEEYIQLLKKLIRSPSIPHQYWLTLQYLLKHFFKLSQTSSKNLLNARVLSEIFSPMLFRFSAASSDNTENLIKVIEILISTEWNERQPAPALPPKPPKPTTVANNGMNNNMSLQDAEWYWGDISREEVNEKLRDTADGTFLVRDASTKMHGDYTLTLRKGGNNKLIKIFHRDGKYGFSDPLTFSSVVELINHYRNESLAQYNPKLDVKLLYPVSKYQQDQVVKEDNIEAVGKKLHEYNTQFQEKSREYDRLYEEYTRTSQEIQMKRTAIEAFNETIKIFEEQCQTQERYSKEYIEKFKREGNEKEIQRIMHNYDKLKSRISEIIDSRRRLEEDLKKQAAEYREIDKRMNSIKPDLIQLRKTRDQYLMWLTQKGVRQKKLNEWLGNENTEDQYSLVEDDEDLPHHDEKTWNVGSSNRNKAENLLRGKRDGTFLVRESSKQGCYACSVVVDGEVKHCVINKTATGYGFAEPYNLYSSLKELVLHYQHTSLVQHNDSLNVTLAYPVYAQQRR

| SMILES | IC50 [nM] | IC50 (separated isomer, 1st peak) [nM] | IC50 (separated isomer, 2nd peak) [nM] |
| --- | --- | --- | --- |
| COC[C@H]1CCCN1c1c(C(C)Nc2ncnc3[nH]cnc23)cc(Cl)c2cccnc12 (mixture of isomers) [Example 14, N-(1-{5-chloro-8-[(2R)-2-(methoxymethyl)pyrrolidin-1-yl]quinolin-7-yl}ethyl)-9H-purin-6-amine bis-trifluoroacetate] | 100 to 250 | – | – |
| CC(Nc1ncnc2[nH]cnc12)c1cc(Cl)c2cccnc2c1N1CC[C@H](F)C1 (mixture of isomers) [Example 57, N-(1-{5-Chloro-8-[(3S)-3-fluoropyrrolidin-1-yl]quinolin-7-yl}ethyl)-9H-purin-6-amine bis(trifluoroacetate)] | 250 to 500 | – | – |
| CC(Nc1ncnc2[nH]cnc12)c1cc(Cl)c2cccnc2c1N1CCC(C#N)C1 (mixture of isomers) [Example 60, 1-{5-Chloro-7-[1-(9H-purin-6-ylamino)ethyl]quinolin-8-yl}pyrrolidine-3-carbonitrile bis(trifluoroacetate)] | 100 to 250 | – | – |
| CC(Nc1nc(N)nc2[nH]cnc12)c1cc(F)c2ccnnc2c1-c1cccc(F)c1 (single isomer, unassigned) [Example 22, N(6)-{1-[5-Fluoro-8-(3-fluorophenyl)cinnolin-7-yl]ethyl}-9H-purine-2,6-diamine] | < 50 | – | – |
| CC(Nc1ncnc2[nH]cnc12)c1cc(Cl)c2ccnnc2c1-c1ccccc1F (single isomer, unassigned) [Example 25, N-{1-[5-Chloro-8-(2-fluorophenyl)cinnolin-7-yl]ethyl}-9H-purin-6-amine] | > 1000 | – | – |
| CC(Nc1ncnc2[nH]cnc12)c1cc(Cl)c2ccnnc2c1-c1ccccc1F (single isomer, unassigned) [Example 26, N-{1-[5-Chloro-8-(2-fluorophenyl)cinnolin-7-yl]ethyl}-9H-purin-6-amine] | 250 to 500 | – | – |
| CC(Nc1ncnc2[nH]cnc12)c1cc(Cl)c2ccnnc2c1-c1ccccc1F (single isomer, unassigned) [Example 27, N-{1-[5-Chloro-8-(2-fluorophenyl)cinnolin-7-yl]ethyl}-9H-purin-6-amine] | 50 to 100 | – | – |
| CC(Nc1ncnc2[nH]cnc12)c1cc(Cl)c2ccnnc2c1-c1ccccc1F (single isomer, unassigned) [Example 28, N-{1-[5-Chloro-8-(2-fluorophenyl)cinnolin-7-yl]ethyl}-9H-purin-6-amine] | < 50 | – | – |
| CCC(Nc1ncnc2[nH]cnc12)c1cc(Cl)c2ccnnc2c1-c1cccc(F)c1 (single isomer, unassigned) [Example 32, N-{1-[5-chloro-8-(3-fluorophenyl)cinnolin-7-yl]propyl}-9H-purin-6-amine] | > 1000 | – | – |
| CCC(Nc1ncnc2[nH]cnc12)c1cc(Cl)c2ccnnc2c1-c1cccc(F)c1 (single isomer, unassigned) [Example 33, N-{1-[5-chloro-8-(3-fluorophenyl)cinnolin-7-yl]propyl}-9H-purin-6-amine] | < 50 | – | – |
| CC(Nc1ncnc2[nH]cnc12)c1ccc2ccccc2c1-c1cccc(F)c1 (stereo not drawn) [Example 1, N-{1-[1-(3-fluorophenyl)-2-naphthyl]ethyl}-9H-purin-6-amine trifluoroacetate] | 100 to 250 | – | – |
| Cc1nc2c(-c3cccc(F)c3)c(C(C)Nc3ncnc4[nH]cnc34)ccc2s1 (stereo not drawn) [Example 2, N-{1-[4-(3-fluorophenyl)-2-methyl-1,3-benzothiazol-5-yl]ethyl}-9H-purin-6-amine trifluoroacetate] | > 1000 | – | – |
| CC(Nc1nc(N)nc2[nH]cnc12)c1ccc2ccccc2c1-c1cncc(F)c1 (stereo not drawn) [Example 3, N(6)-{1-[1-(5-fluoropyridin-3-yl)-2-naphthyl]ethyl}-9H-purine-2,6-diamine bis-trifluoroacetate] | < 50 | – | – |
| CC(Nc1nc(N)nc2[nH]cnc12)c1ccc2ccccc2c1-c1cccc(F)c1 (stereo not drawn) [Example 4, N(6)-{1-[1-(3-fluorophenyl)-2-napthyl]ethyl}-9H-purine-2,6-diamine] | – | 500 to 1000 | 500 to 1000 |
| CC(Nc1ncnc2[nH]cnc12)c1ccc2ccccc2c1-c1cncc(F)c1 (stereo not drawn) [Example 5, N-{1-[1-(5-fluoropyridin-3-yl)-2-napthyl]ethyl}-9H-purin-6-amine bis-trifluoroacetate] | < 50 | – | – |
| CC(Nc1ncnc2[nH]cnc12)c1ccc2cccnc2c1-c1cc(F)cc(F)c1 (stereo not drawn) [Example 6, N-{1-[8-(3,5-difluorophenyl)quinolin-7-yl]ethyl}-9H-purin-6-amine bis-trifluoroacetate] | 500 to 1000 | – | – |
| CC(Nc1ncnc2[nH]cnc12)c1ccc2cccnc2c1-c1ccccc1F (stereo not drawn) [Example 7, N-{1-[8-(2-fluorophenyl)quinolin-7-yl]ethyl}-9H-purin-6-amine bis-trifluoroacetate] | – | > 1000 | 500 to 1000 |
| CC(Nc1ncnc2[nH]cnc12)c1ccc2cccnc2c1-c1cccc(F)c1 (stereo not drawn) [Example 8, N-{1-[8-(3-fluorophenyl)quinolin-7-yl]ethyl}-9H-purin-6-amine bis-trifluoroacetate] | 250 to 500 | – | – |
| CC(Nc1ncnc2[nH]cnc12)c1ccc2cccnc2c1-c1cncc(F)c1 (stereo not drawn) [Example 9, N-{1-[8-(5-fluoropyridin-3-yl)quinolin-7-yl]ethyl}-9H-purin-6-amine tris-trifluoroacetate] | 500 to 1000 | – | – |
| CC(Nc1ncnc2[nH]cnc12)c1cc(Cl)c2cccnc2c1-c1ccccc1F (stereo not drawn) [Example 10, N-{1-[5-chloro-8-(2-fluorophenyl)quinolin-7-yl]ethyl}-9H-purin-6-amine bis-trifluoroacetate] | – | 100 to 250 | < 50 |
| COCCN1CCN(c2c(C(C)Nc3ncnc4[nH]cnc34)cc(Cl)c3cccnc23)CC1 (stereo not drawn) [Example 11, N-(1-{5-chloro-8-[4-(2-methoxyethyl)piperazin-1-yl]quinolin-7-yl]ethyl)-9H-purin-6-amine tris-trifluoroacetate] | < 50 | – | – |
| CC(Nc1ncnc2[nH]cnc12)c1cc(Cl)c2cccnc2c1N1CC[C@@H](O)C1 (stereo partly drawn) [Example 12, (3R)-1-{5-chloro-7-[1-(9H-purin-6-ylamino)ethyl]quinolin-8-yl}pyrrolidin-3-ol bis-trifluoroacetate] | – | > 1000 | < 50 |

Now from value to compound:

| IC50 [nM] | IC50 (separated isomer, 1st peak) [nM] | IC50 (separated isomer, 2nd peak) [nM] | SMILES |
| --- | --- | --- | --- |
| < 50 | – | – | CC(Nc1ncnc2[nH]cnc12)c1cc(F)c2ccnnc2c1-c1cccc(F)c1 (single isomer, unassigned) [Example 20, N-{1-[5-Fluoro-8-(3-fluorophenyl)cinnolin-7-yl]ethyl}-9H-purin-6-amine] |
| > 1000 | – | – | CC(Nc1ncnc2[nH]cnc12)c1cc(F)c2ccnnc2c1-c1cccc(F)c1 (single isomer, unassigned) [Example 21, N-{1-[5-Fluoro-8-(3-fluorophenyl)cinnolin-7-yl]ethyl}-9H-purin-6-amine] |
| < 50 | – | – | CC(Nc1ncnc2[nH]cnc12)c1cc(Cl)c2ccnnc2c1-c1cc(F)cc(F)c1 (single isomer, unassigned) [Example 23, N-{1-[5-Chloro-8-(3,5-difluorophenyl)cinnolin-7-yl]ethyl}-9H-purin-6-amine] |
| > 1000 | – | – | CC(Nc1ncnc2[nH]cnc12)c1cc(Cl)c2ccnnc2c1-c1cc(F)cc(F)c1 (single isomer, unassigned) [Example 24, N-{1-[5-Chloro-8-(3,5-difluorophenyl)cinnolin-7-yl]ethyl}-9H-purin-6-amine] |
| 100 to 250 | – | – | CC(Nc1ncnc2[nH]cnc12)c1cc(F)c2ccnnc2c1-c1cc(F)cc(F)c1 (single isomer, unassigned) [Example 29, N-{1-[8-(3,5-difluorophenyl)-5-fluorocinnolin-7-yl]ethyl}-9H-purin-6-amine trifluoroacetate] |
| > 1000 | – | – | CC(Nc1ncnc2[nH]cnc12)c1cc(F)c2ccnnc2c1-c1cc(F)cc(F)c1 (single isomer, unassigned) [Example 30, N-{1-[8-(3,5-difluorophenyl)-5-fluorocinnolin-7-yl]ethyl}-9H-purin-6-amine trifluoroacetate] |
| 50 to 100 | – | – | CC(Nc1ncnc2[nH]cnc12)c1cc(Cl)c2ccnnc2c1-c1cncc(F)c1 (single isomer, unassigned) [Example 34, N-{1-[5-chloro-8-(5-fluoropyridin-3-yl)cinnolin-7-yl]ethyl}-9H-purin-6-amine trifluoroacetate] |
| > 1000 | – | – | CC(Nc1ncnc2[nH]cnc12)c1cc(Cl)c2ccnnc2c1-c1cncc(F)c1 (single isomer, unassigned) [Example 35, N-{1-[5-chloro-8-(5-fluoropyridin-3-yl)cinnolin-7-yl]ethyl}-9H-purin-6-amine trifluoroacetate] |
| < 50 | – | – | Cc1cc(C(C)Nc2ncnc3[nH]cnc23)c(-c2cc(F)cc(F)c2)c2nnccc12 (single isomer, unassigned) [Example 38, N-{1-[8-(3,5-difluorophenyl)-5-methylcinnolin-7-yl]ethyl}-9H-purin-6-amine] |
| > 1000 | – | – | Cc1cc(C(C)Nc2ncnc3[nH]cnc23)c(-c2cc(F)cc(F)c2)c2nnccc12 (single isomer, unassigned) [Example 39, N-{1-[8-(3,5-difluorophenyl)-5-methylcinnolin-7-yl]ethyl}-9H-purin-6-amine] |
